6 compounds from US20030176479A1, “Use of selective EP4 receptor agonists for the treatment of liver failure, loss of patency of the ductus arteriosus, glaucoma or ocular hypertension” (priority 2002, published 2003) can be followed below.

This assay concerns the target T1, human EP3 receptor (Homo sapiens, UniProt P43115).
T1 construct: expressed in transfected cells
T1 sequence (P43115 1-390): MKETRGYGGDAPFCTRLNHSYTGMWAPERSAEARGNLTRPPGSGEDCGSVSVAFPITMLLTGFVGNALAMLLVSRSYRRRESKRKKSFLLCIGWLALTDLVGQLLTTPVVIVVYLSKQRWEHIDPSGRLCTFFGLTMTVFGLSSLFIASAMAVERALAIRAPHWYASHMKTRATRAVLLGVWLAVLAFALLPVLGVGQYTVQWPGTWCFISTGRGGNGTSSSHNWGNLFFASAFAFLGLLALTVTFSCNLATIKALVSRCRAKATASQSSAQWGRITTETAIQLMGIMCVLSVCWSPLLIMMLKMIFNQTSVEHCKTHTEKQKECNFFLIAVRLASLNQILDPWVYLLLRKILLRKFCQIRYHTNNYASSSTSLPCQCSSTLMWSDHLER
The experiment in a line: Human EP3 receptor binding assay (3H-PGE2 displacement, 293S cell membranes). The note with it: displacement of 3H-prostaglandin E2, 293S membranes, 1 hour at 25° C. An excerpt: The compounds of Formula I or II, which are useful in the methods of the present invention, bind to the prostaglandin E2 type 4 receptor (EP4 receptor). The full-length coding sequence for the human EP1 receptor is made in accordance with the procedure in Funk et al., Journal of Biological Chemistry, 1993, 268, 26767-26772. The full-length rat EP2 receptor is made in accordance with the procedure in Nemoto et al., Prostaglandins and other Lipid Mediators, 1997, 54, 713-725. The full-length coding sequence for the human EP3 receptor is made in accordance with the procedure in Regan et al., British Journal of Pharmacology, 1994, 112, 377-385. The full-length coding sequence for the rat EP4 receptor is made in accordance with the procedure in Sando et al., Biochem. Biophys. Res. Comm. 1994, 200,1329-1333. These full-length receptors are used to prepare 293S cells expressing the human EP1, rat EP2, human EP3 or rat EP4 receptors.
Human EP1, Rat EP2, Human EP3, Rat EP4 Receptor Binding Assay
The full-length receptors described above are used to prepare 293S cells expressing the EP1, EP2, EP3, and EP4 receptors.
293S cells expressing either the human EP1, rat EP2, human EP3 or rat EP4 prostaglandin E2 receptors are generated according to methods known to those skilled in the art. Typically, PCR (polymerase chain reaction) primers corresponding to the 5′ and 3′ ends of the published full length receptor are made according to the well known methods disclosed above and are used in an RT-PCR (reverse transcriptase-polymerase chain reaction) reaction using the total RNA from human kidney (for EP1), rat kidney (for EP2), human lung (for EP3), or rat kidney (EP4) as a source. PCR products are cloned by the TA overhang method into pCR2.1 (Invitrogen Corporation, Carlsbad, Calif.) and identity of the cloned receptor is confirmed by DNA sequencing. For expression of the rat EP2 receptor, the confirmed cDNA is subcloned into the mammalian expression vector PURpCl, a vector generated by subcloning the selectable marker for puromycin resistance into the mammalian expression vector pCl (Promega, Madison, Wis.)
293S cells are transfected with either the cloned human EP1 or EP3 receptor in pcDNA3 by electroporation. Stable cell lines expressing either the human EP1 or EP3 receptor are established following selection of transfected cells with G418. 293S cells are transfected with the cloned rat EP2 receptor in PURpCi by lipid mediated transfection. Stable cell lines expressing the rat EP2 receptor are established following selection of transfected cells with puromycin. 293S cells are transfected with the cloned rat EP4 receptor in pcDNA3 by lipid mediated transfection. Stable cell lines expressing the rat EP4 receptor are established following selection of transfected cells with Geneticin® (Invitrogen, Carlsbad, Calif.).
Clonal cell lines expressing the maximal number of receptors are chosen following a whole cell ^3H-PGE2 binding assay using unlabeled PGE2 as a competitor.
Membrane Preparation: All operations are performed at 4° C. Transfected cells expressing either prostaglandin E2 type 1, type 2, type 3, or type 4 (EP1, EP2, EP3, or EP4, respectively) receptors are harvested and suspended to 2 million cells per ml in Buffer A [50 mM Tris-HCl (pH 7.4), 10 mM MgCI2, 1 mM EDTA, 1 mM Pefabloc peptide, (Boehringer Mannheim Corp., Indianapolis, Ind.), 10 uM Phosporamidon peptide, (Sigma, St. Louis, Mo.), 1 uM pepstatin A peptide, (Sigma, St. Louis, Mo.), 10 uM elastatinal peptide, (Sigma, St. Louis, Mo.), 100 uM antipain peptide, (Sigma, St. Louis, Mo.)]. The cells are lysed by sonification with a Branson Sonifier (Branson Ultrasonics Corporation, Danbury, Conn.) in 2 fifteen-second bursts. Unlysed cells and debris are removed by centrifugation at 100 ×g for 10 min. Membranes are then harvested by centrifugation at 45,000×g for 30 minutes. […]
A general note: In a radioligand displacement assay an active substance lowers the binding of a labelled ligand.
As to `O=C(O)CCCCCCN1C(=O)CC[C@@H]1CC[C@@H](O)Cc1cccc(Cl)c1` [Example 1, 7-{2S-[4-(3-Chloro-phenyl)-3R-hydroxy-butyl]-5-oxo-pyrrolidin-1-yl}-heptanoic acid], the IC50 was greater than 3.2 µM.

Consider `O=C(O)CCCCCCN1C(=O)CC[C@@H]1CC[C@@H](O)Cc1cccc(C(F)(F)F)c1` [Example 2, 7-{2S-[3R-hydroxy-4-(3-trifluoromethyl-phenyl)-butyl]-5-oxo-pyrrolidin-1-yl}-heptanoic acid], for which the IC50 is greater than 3.2 µM.

`O=C1CC[C@H](CCC(O)Cc2cccc(Cl)c2)N1CCCCCCc1nn[nH]n1` (stereo partly drawn) [Example 3, 5S-[4-(3-Chloro-phenyl)-3-hydroxy-butyl]-1-[6-(2H-tetrazol-5-yl)-hexyl]-pyrrolidin-2-one]: the IC50 is greater than 3.2 µM.

As for `O=C1CC[C@H](CC[C@@H](O)Cc2cccc(C(F)(F)F)c2)N1CCCCCCc1nn[nH]n1` [Example 4, 5S-[3R-Hydroxy-4-(3-trifluoromethyl-phenyl)-butyl]-1-[6-(2H-tetrazol-5-yl)-hexyl]-pyrrolidin-2-one], the IC50 was greater than 3.2 µM.

`O=C1CCC(CCC(O)Cc2cccc(-c3ccccc3)c2)N1CCCCCCc1nn[nH]n1` (stereo not drawn) [Example 6, 5-(4-Biphenyl-3-yl-3-hydroxy-butyl)-1-[6-(2H-tetrazol-5-yl)-hexyl]-pyrrolidin-2-one] registered an IC50 greater than 3.2 µM.

`O=C(O)CCCCCCN1C(=O)CCC1CCC(O)Cc1ccccc1` (stereo not drawn) [Example 9, 7-(2-(3-hydroxy-4-phenyl-butyl)-5-oxo-pyrrolidin-1-yl)-heptanoic acid] returned an IC50 greater than 3.2 µM.

One may read the IC50 as the concentration that gives 50% inhibition.
